Test results reported in patent publication US11453640B2, “Small molecules for disrupting the super elongation complex and inhibiting transcription elongation for cancer therapy” (NORTHWESTERN UNIVERSITY, priority 2018, dated 2022).

Test system: AFF1 and AFF4 occupancy on chromatin
Assay: ChIP-seq of AFF1 and AFF4 chromatin occupancy in HEK293T cells
Assay type: cell-based, human
Details: 6 hr
Text: FIG. 1. Peptidomimetic identification of disruptors of the AFF4-CCNT1 interaction within the Super Elongation Complex. (A) Schematic for the identification of small molecule inhibitors of the AFF4-CCNT1 interaction using in silico high-throughput screening. Compounds from the ZINC database were docked with the AFF4-CCNT1 structure (4IMY) using a three-tier glide-docking algorithm, which led to 40 candidates. Residues forming the deep binding pocket of CCNT1 are labeled orange and residues of the AFF4 peptide are labeled red. (B) Validation screening identified KL-1 as a potential SEC disruptor using AlphaLISA screening. […] The Ki constants of both compounds were measured with the AlphaLISA assays. […] 5 μl, 10 and 20 μl cell lysates were loaded and the protein levels of AFF1, AFF4, CCNT1, CDK9 and Tubulin (load control) were determined by western blotting.
Chromatin Immunoprecipitation Sequencing. […] ChIP-seq reads were aligned to the Drosophila genome (UCSC dm3) or human genome (UCSC hgl9). Alignments were processed with Bowtie version 1.1.2, allowing only uniquely mapping reads with up to two mismatches within the 50 bp read. The resulting reads were extended to 150 bp toward the interior of the sequenced fragment and normalized to total reads aligned (reads per million, r.p.m.). […] P-values were calculated with a two-sided Kolmogorov-Smirnov test. […]

COc1cccc(C(=O)CC(=O)C(=O)Nc2cc(Cl)ccc2C)c1 [KL-1, N-(5-chloro-2-methylphenyl)-4-oxo-4-(3-methoxyphenyl)-2-oxobutanamide]
chromatin occupancy of AFF1 and AFF4: decreased occupancy of AFF1 and AFF4
